Laboratory results reported in patent publication US20040147595A1, “Biofilm degrading or sloughing compositions and methods” (priority 2001, published 2004).
“And” between values parts separate entries of the source, which are not always exact repeats. Equal values may be shown once. “Also recorded” adds a separate entry of the source. Read-outs that look alike come from different tables or passages of the source.

Key:
[1] = test system: OHHL induced LuxR dependent expression of GFP; assay: Quantitative furanone inhibition of the LuxR-PluxI-gfp(ASV) quorum sensor in E. coli MT102 (pJBA89); format: cell-based, Escherichia coli; details: gradient of furanone concentration lowering RFU to 40% versus OHHL concentration (5-100 nM)
From the text: To analyse the AHL antagonist activity of the halogenated furanones we tested the compounds for their ability to inhibit 3oxo-C6-HSL (OHHL) induced LuxR dependent expression of green fluorescent protein (GFP) from a Pgfp(ASV) fusion in the AHL monitor strain E. coli MT102 harbouring pJBA89 (Andersen et al., 2001).
The medium used is minimal ABT containing 0.5% glucose and 0.5% Casamino Acids. In growing cultures of the AHL monitor strain E. coli Mt102 (pJBA89) encoding […] and a P-gfp(ASV) fusion, GFP(ASV) is produced immediately upon OHHL addition specifically from the LuxR controlled P-gfp(ASV) fusion gene. The sensitivity is high (responsive to as little as 3 nm OHHL) and due to the instability built into the GFP (ASV) variant there is no background production of green fluoroscence (Andersen et al., 2001). GFP expression from the AHL monitor strain E. coli MT102 (pJBA89) and the control strain MT102 harbouring the lacl^q, Plas-gfp(ASV) IPTG inducible expression system pMH197 was quantified in the following way. Overnight cultures were diluted four fold in fresh medium and incubated for one hour at 30° C. while OHHL and furanone compounds in the required concentrations were mixed in the wells of microtiter dishes. […] When absolute values were required, green fluoroscence was measured on a fluorometer (model RF-1501; Shimadzu, Tokyo, Japan) act at an excitation wavelength of 475 nm and emission detection at 515 nm. To establish a correlation between the colour code of the ARGUS-50 captured images and green fluorescence, both colour and relative fluorescence units (RFU), were determined for a dilution series of an E. coli MT102 (pJBA89) culture which had been incubated with […]. […]
From the second plot, the furanone concentration reducing the relative activity to 40% (ID60) is determined for each OHHL concentration. […]
To enable easy comparison of the strength of the furanones, an inhibition index (IIX40) is calculated for each furanone compound. […]

[2] = test system: las quorum sensing system (lasB-gfp(ASV) Plac-lasR); assay: pMHLAS lasB-gfp(ASV) reporter in E. coli MT102; format: cell-based, Escherichia coli; details: for induction of the lasB-gfp(ASV) monitor by AHL compounds: E. coli with pMHLAS, AHLs 0 to 1000 nM
Description: (§1) AHL and furanone bioassay. Strains were grown exponentially in LB or ABt medium supplemented with 0.5% glucose at 30° C., shading at 250 rpm. At an optical density of approximately 0.8. the cultures were diluted and split into subcultures in glass culture flasks. AHLs and furanone 56 were added to appropriate concentrations and the cultures were further incubated at 30° C. under vigorous shaking. Culture samples were retrieved at various time intervals and green fluorescence was measured with a fluorometer (model RF-1501, Shimadzu, Tokyo, Japan) set at an excitation wavelength of 475 nm and emission wavelength of 515 nm. Relative fluorescence was calculated as green fluorescence normalized to 1 ml culture divided by the optical density (OD600 nm.
(§2) Initially, the lasB-gfp(ASV) translational fusion (OdDHL sensor) was thoroughly characterized with respect to its sensitivity and specificity. A culture of E. coli hosting the pMHLAS monitor plasmid was diluted and spilt into several subcultures which were then supplemented with AHLs at concentrations ranging from 0 to 1000 nM. […] When the pMHLAS based reporter system was hosted by PAO-JP2. the OdDHL concentration required for half-maximal activation of the lasB-gfp(ASV) fusion was 8 nM (data not shown). In single copy on the chromosome of PAO-JP2, the OdDHL concentration on required for half-maximal activation of lasB expression was approximately 250 nM (FIG. 2b). Green fluorescent cells were visible by epifluorescence microscopy at a minimal OdDHL concentration of 50 nM (FIG. 2c).
Effect of the furanone in a heterologous background. The direct regulation exerted by the las regulon on lasB expression is well described by numerous studies (Gambello & Iglewski, 1991: Pearson et al., 1994; Pearson et al., 1997). Regulatory complexity is added by the observation that the las quorum sensing circuit itself is subject to global regulators (Albus et al., 1997; Whiteley et al., 2000) and that lasB expression is also controlled by other regulators than LasR (Brumlik & Storey, 1992; Pesci et al., 1999; Schictman et al., 1995). It was, therefore, important to rule out that QSI effect, observed is not caused by furanone interaction with high levels of control. Since there is no AHL-based quorum sensing system present in Escherichia coli (Williams et al., 2000), this bacterium provides an unbiased and well-defined genetic background for studying the direct effects of the furanone on the P. aeruginosa las quorum sensing system. We repeated the above-described experiments using E. coli MT102 as a heterologous host for the reporter system. […] This is likely to be attributed to the increased copy number of the reporter plasmid.

[3] = test system: las quorum sensing system (lasB-gfp(ASV) expression); assay: AHL and furanone bioassay, PlasB-gfp(ASV) Plac-lasR reporter in planktonic PAO-JP2; format: cell-based, Pseudomonas aeruginosa
Description: as §1, §2
Noteworthy, the inhibitory effect of furanone 56 was relieved at increased concentrations of OdDHL.

[4] = test system: lasB promoter; details: Pearson et al (1995), pKDT17 in PAO-R1; read-out: OdDHL required for half-maximal activation of a similar construct; cited from earlier work
[5] = test system: lasB promotor; details: Gray et al., 1994; cited from earlier work
[6] = test system: chitinase; assay: Virulence factor production: chitinase activity of PAO-JP2 supernatant; format: cell-based, Pseudomonas aeruginosa
Description: The chitinase activity assay was performed as described by the assay manufacturer (Loewe Biochemica, Sauerlach, Germany). Supernatant (560 μl) of cultures prepared as described for the elastase assay was mixed with carboxymethyl-chitin-remazol brilliant violet (200 μl) and sodium phosphate buffer (40 μl, 1 M, pH 7.5). The reaction mixture was incubated for 18 h at 40° C. in a waterbath. The reaction was stopped by addition of HCl (200 μl, 2 N) and kept for 15 min on ice. After centrifugation (10 min at 15000 rpm), the absorbance (OD550 nm) of the supernatant was measured. The relative chitinase activity was calculated as OD550 nm/OD600 nm normalized to 1 ml supernatant.

[7] = test system: lasB-gfp(ASV) reporter in P. aeruginosa PAO-JP2 biofilm; assay: OdDHL-mediated signalling in PAO-JP2 flowcell biofilm, lasB-gfp(ASV) reporter, CSLM; format: cell-based, Pseudomonas aeruginosa
Description: P. aeruginosa biofilms. Biofilms were grown at 30° C. in three-dimensional flow cells (Christensen et al., 1999) with individual channel dimensions of 0.3×4×40 mm supplied With ABt minimal medium supplemented with 2% LB. The flow system was assembled and prepared as described by Christensen et al. (1999). The substratum consisted of a microscope glass coverslip (Knittel 24×50 mm st1, Knittel Glaser, Braunschweig, Germany). Cultures for inoculation of the flow channels were prepared in the following way: P. aeruginosa strains were streaked on LB plates with the appropriate antibiotics and incubated for 24 h at 37° C. From each plate a single colony was used for inoculation of 10 ml ABt with 10% LB. The cultures were grown at, 30° C. for 18 h before they were diluted to an OD600 nm of 0.1 in sterile 0.9% NaCl and used for inoculation of the flow channels. Medium flow was kept at a constant rate of 3 mL/h, equivalent to a mean flow velocity of 0.7 mm/s, using a Watson-Marlow 205S peristaltic pump (Watson-Marlow, Falmouth, England). Biofilms were grown for 24 hours before being shifted to media containing AHL and furanone.
Scanning confocal laser microscopy (SCLM). Microscopic inspection and image acquisition were performed an a scanning confocal laser microscope (model TCS4D, Leica Lasertechnik GmbH, Heldelberg, Germany) equipped with a 63×/1.32-0.6 oil objective. The microscope was equipped with a motorized and programmable xy-stage, which was used for monitoring single colonies during the biofilm experiments. At the beginning of each online experiment, the microscope was programmed to track single randomly selected microcolonies; the sensitivity of photo multipliers and the laser intensity were adjusted and thereafter kept constant through out the duration of the experiments. Image scanning was carried out using the 488 nm and 568 nm lines of an Ar/Kr laser for detection of Gfp and Rfp, respectively. Visualization of captured images was performed using the IMARIS software package (Bitplane AG, Zúrich, Switzerland) running on a Silicon Graphics Indigo 2 workstation (Silicon Graphics, Mountain View, Calif. USA).
Inhibition of AHL-mediated signalling in P. aeruginosa biofilms. The lasB-gfp(ASV) reported was integrated into the chromosome of PAO-JP2 to ensure stable segregation and a constant gene dosage of the reported system. The strain was growth in flowcells for 24 hours in ABt-LB medium and a 10-15 μm thick biofilm developed. The media flow was subsequently switched to ABt-LB medium containing the appropriate AHL and furanone concentrations. The development of green fluorescence was monitored online by CSLM for 8 hours.

[8] = test system: elastase; assay: Virulence factor production: elastase (proteolytic) activity of PAO-JP2 supernatant; format: cell-based, Pseudomonas aeruginosa
Description: Measurements of virulence factors. PAO-JP2 was grown in LB medium at 37° C. and shaking at 250 rpm to an OD600 nm of 1.0. The culture was divided into seven subcultures, which were added 0, 70, or 1000 nm OdDHL and 0. 3. or 5 μg/ml furanone 58. The cultures were grown for an additional 4 hours at 37° C. The proteolytic activity was measured as described by Ayora & G{overscore (o)}tz (1994). Azocasein (250 μl 2%, Sigma, St. Louis, Mo.) in 50 mM Tris/HCl and steril-filtered (Ø 0.2 μm) supernatant (150 μl) were incubated for 4 h at […] After precipitation of undigested substrate with trichloroacetic acid (1.2 ml 10%) for 15 minutes, followed by 10 minutes centrifugation at 1000 rpm, NaOH (1.4 ml 1 M) were added to the supernatant. The relative protease activity was measured as the absorbance at 440 nm (OD440 nm) of the supernatant divided by the optical density of the culture (OD600 nm ).

[9] = test system: P. aeruginosa; details: cited from earlier work

Compound: CCCCC1=C(Br)/C(=C/Br)OC1=O [Compound 2]
- inhibition index (IIX40) [1]: 0.75 mole of furanone per mmole of

Compound: CCCCCCCC(=O)CC(=O)N[C@H]1CCOC1=O [ODHL, N-[3-oxo-decanoyl]-L-homoserine lactone]
- induction of the lasB-gfp(ASV) monitor by AHL compounds [2]: activated lasB-expression albelt at a lower level; also recorded: less efficient

Compound: CCCCCC(=O)CC(=O)N[C@H]1CCOC1=O [OOHL, N-[3-oxo-octanoyl]-L-homoserine lactone]
- induction of the lasB-gfp(ASV) monitor by AHL compounds [2]: less efficient

Compound: CCCCCCCCCC(=O)CC(=O)N[C@H]1CCOC1=O [OdDHL, N-[3-oxo-dodecanoyl]-L-homoserine lactone]
- induction of the lasB-gfp(ASV) monitor by AHL compounds [2]: most efficient inducer
- increased responsiveness to OdDHL of the E. coli strain harboring the lasB reporter ([2]; compared with the PAO-JP2 reporter): approx. 10 fold
- minimal OdDHL concentration at which green fluorescent cells were visible by epifluorescence microscopy ([3]; mini-Tn5 reporter in PAO-JP2): 50 nM
- EC50 ([3]; pMHLAS based (plasmid) reporter hosted by PAO-JP2, data not shown, read-out: OdDHL concentration required for half-maximal activation of the lasB-gfp(ASV) fusion): 8 nM
- EC50 ([3]; reporter in single copy on the chromosome of PAO-JP2, read-out: OdDHL concentration required for half-maximal activation of lasB expression): ~250 nM and 250 nM
- lowest OdDHL concentration detected by the reporter ([3]; single chromosomal copy, data not shown): 20 nM
- EC50 [4]: 1000 nM
- induction of the promotor in response to OdDHL addition [5]: 63 fold
- chitinase activity ([6]; PAO-JP2, 70 nm OdDHL): induced
- chitinase activity in furanone-treated culture ([6]; addition of 1 μM OdDHL): entirely restored
- lowest OdDHL concentration inducing lasB promoter activity in PAO-JP2 biofilms [7]: 20 nM
- expression of the lasB-gfp(ASV) reporter fusion in biofilm ([7]; 40 nm OdDHL): induced and visible in the single cells within four hours
- elastase activity ([8]; PAO-JP2, 70 nm OdDHL): induced
- elastase activity in furanone-treated culture ([8]; addition of 1 μM OdDHL): entirely restored

Compound: NC[C@H]1O[C@H](O[C@H]2[C@H](O)[C@@H](O[C@H]3O[C@H](CO)[C@@H](O)[C@H](N)[C@H]3O)[C@H](N)C[C@@H]2N)[C@H](N)C[C@@H]1O [tobramycin]
- resistance in the biofilm form compared to the planktonic cells [9]: 50,000 times
